Test results as given in patent US5744320A (priority 1995, dated 1998).

Key:
Firefly Luciferase [1] = molecular target: T1, Firefly Luciferase (Photinus pyralis, UniProt P08659, K549A/L550V/N119G/N50D/S548I); experiment: biochemical; assay type: biochemical
T1 construct: host or cells: Chinese hamster ovary (CHO) cells, transient transfection, cleared lysate

Renilla Luciferase [2] = molecular target: T2, Renilla Luciferase (Renilla reniformis, UniProt P27652); experiment: Quenching of the luminescent reaction of Renilla luciferase by RLQ reagents (Table 3); assay type: biochemical
T2 sequence (P27652 1-311): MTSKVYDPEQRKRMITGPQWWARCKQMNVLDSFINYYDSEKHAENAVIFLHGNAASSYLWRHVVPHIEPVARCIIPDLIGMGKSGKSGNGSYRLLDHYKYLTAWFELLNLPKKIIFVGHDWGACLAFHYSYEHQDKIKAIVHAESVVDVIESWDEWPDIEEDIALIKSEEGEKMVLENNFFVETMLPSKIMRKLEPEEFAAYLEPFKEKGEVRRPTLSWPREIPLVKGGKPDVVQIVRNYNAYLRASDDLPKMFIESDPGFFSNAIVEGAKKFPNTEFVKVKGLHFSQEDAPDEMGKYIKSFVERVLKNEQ
Description: Numerous chemical compounds were tested individually and in combination for their ability to rapidly quench luciferase catalyzed luminescent reactions. Table 1 and Table 3 present the potency of quenching firefly and Renilla luciferases, respectively, for representative concentrations of the compounds tested. The percentage of residual luminescent signal measured after addition of the test compound is indicative of its quenching efficiency. Whether used individually or in combination at varying concentrations, useful quench formulations should be capable of reducing luminescence from the luciferase reactions by 1,000-fold, i.e., to 0.1% of the starting luminescent emission.
Renilla luciferase reactions were performed by adding 100 μl of purified Renilla luciferase (typically diluted to 0.3 μg per ml in 75 mM HEPES, 0.02% BSA; pH 8) to a luminometer tube containing an equal volume of Renilla substrate solution (7.5 mM sodium acetate, 10 mM CDTA, 400 mM sodium sulfate, 25 μM APMBT, 15 mM sodium pyrophosphate, 2 μM coelenterazine; pH 5.5). Photon emission was quantified as previously described. The individual and combined chemical formulations summarized in Table 3 were evaluated for their ability to quench Renilla luciferase luminescence by adding 100 μl of the test solution to the luminescent reaction, then quantifying residual light emission as before.

Renilla Luciferase [3] = molecular target: T2, Renilla Luciferase; experiment: Compatibility of BLA and BLQ reagent chemicals with the luminescent reaction of Renilla luciferase (Table 4); assay type: biochemical
From the text: Implicit to the concept of an integrated (i.e., sequential-measurement) dual-enzyme reporter assay is the necessity to efficiently quench luminescence from the first reporter enzyme such that the activity of the second luminescent reporter is not inhibited. Therefore a quench reagent is required that is extremely potent in quenching luminescence from the firefly reaction but can exist as a passive component in the subsequent luminesces reaction catalyzed by Renilla luciferase. Selected chemical components of Beetle Luciferase Activation (BLA) Reagent, and chemicals identified in Table 1 as candidate Beetle Luciferase Quench (BLQ) Reagents, were further evaluated to assess any inhibitory interaction they may have with the luminescent reaction catalyzed by Renilla luciferase. Table 4 summarizes the affect of these selected chemicals on the luminescent activity of Renilla luciferase. Because of its potent inhibitory affect on the firefly reaction, sodium pyrophosphate (Na4 PPi) was tested first. 100 μl Mathews' Buffer supplemented with 2 μM benzyl-coelenterazine and 15 mM Na4 PPi was dispensed into a luminometer tube containing approximately 3 ng of purified Renilla luciferase in 100 μl Mathews' Buffer, and luminescence was quantified. […]

Firefly Luciferase [4] = molecular target: T1, Firefly Luciferase; experiment: biochemical; details: read-out: Percent (%) Residual Firefly Luciferase Activity
Description: Assays were performed using a cell extract prepared from CHO cells expressing firefly luciferase (described in detail below) and further supplemented with purified Renilla luciferase (approximately 0.3 μg/ml). Thus, the prepared extract simulates the experimental condition in which a single cell population is induced to simultaneously express two distinct luciferase reporter enzymes. Reactions to determine Renilla luciferase activity were conducted by first dispensing 10 μl of extract into a luminometer tube containing 100 μl BLA Reagent (75 mM HEPES, 4 mM MgSO4, 20 mM DTT, 100 μM EDTA, 530 μM ATP, 270 μM CoA, 470 μM beetle luciferin: pH 8.0), then adding 100 μl of one of the various BLQRLA test reagents. The 100% control value for Reporter #1, the firefly luciferase-mediated luminescent reaction, was determined by quantifying light emission from said reaction prior to addition of the designated BLQRLA Reagent. The 100% control value for Reporter #2, the Renilla luciferase-mediated luminescent reaction, was determined using the dual-reporter assay format in which
control BLQRLA Reagent (7.5 mM acetic acid, 15 mM Na4 PPi, 400 mM Na2 SO4, 2 μM coelenterazine; pH 5.0) was added to the firefly luciferase reaction in a 1:1 volume ratio.

[5] = assay concentration 0.33% (v/v)
[6] = read-out: Percent (%) Residual Firefly Luciferase Activity

T1 sequence (P08659 whole entry N50D/N119G/S548I/K549A/L550V): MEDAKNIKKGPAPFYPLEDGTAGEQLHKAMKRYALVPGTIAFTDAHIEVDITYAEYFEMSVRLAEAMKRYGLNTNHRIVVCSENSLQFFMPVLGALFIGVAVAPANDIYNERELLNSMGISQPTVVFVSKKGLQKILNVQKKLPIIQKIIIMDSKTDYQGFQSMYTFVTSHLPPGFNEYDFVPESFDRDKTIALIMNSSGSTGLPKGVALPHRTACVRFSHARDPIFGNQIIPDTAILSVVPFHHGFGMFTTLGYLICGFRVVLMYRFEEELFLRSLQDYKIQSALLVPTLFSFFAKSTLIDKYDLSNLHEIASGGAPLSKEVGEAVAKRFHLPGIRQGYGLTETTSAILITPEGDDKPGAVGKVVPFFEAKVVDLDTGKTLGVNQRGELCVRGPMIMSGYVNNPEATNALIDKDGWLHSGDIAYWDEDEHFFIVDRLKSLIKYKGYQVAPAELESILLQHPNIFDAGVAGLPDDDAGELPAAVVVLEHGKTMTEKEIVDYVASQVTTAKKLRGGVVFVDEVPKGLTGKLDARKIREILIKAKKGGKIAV

O=S(=O)([O-])[O-].[Na+].[Na+] [Na2 SO4, sodium sulfate]
Percent (%) Residual Firefly Luciferase Activity (Firefly Luciferase [1]; assay concentration 400 mM): 10%

O=P([O-])([O-])O.[K+].[K+] [K2 HPO4]
Percent (%) Residual Firefly Luciferase Activity (Firefly Luciferase [1]; assay concentration 190 mM): 8.3%

[Cl-].[Na+] [NaCl]
Percent (%) Residual Firefly Luciferase Activity (Firefly Luciferase [1]; assay concentration 400 mM): 8.3%

c1ccc(-c2nc3ccccc3s2)cc1 [PBT, 2-Phenylbenzothiazole]
remaining activity at 150 µM (Firefly Luciferase [1]; assay concentration 0.15 mM, read-out: Percent (%) Residual Firefly Luciferase Activity): 7.5%

Tween ®20
Percent (%) Residual Renilla Luciferase Activity (Renilla Luciferase [2]; [5]): 3.4%

CC(C)O [iso-Propanol, iso-propanol]
remaining activity at 14.4 % (Firefly Luciferase [1]; [6]): 2.3%

Cc1ccc2nc(-c3ccc(N)cc3)sc2c1 [APMBT, 2-(4-aminophenyl)-6-methylbenzothiazole]
remaining activity at 7.6 µM (Firefly Luciferase [1]; [6]): 0.33%

O=C(O)CN(CCN(CC(=O)O)CC(=O)O)CC(=O)O [EDTA, Ethylenediaminetetraacetic acid]
remaining activity at 22700 µM (Firefly Luciferase [1]; [6]): 0.13%

CCCCO [n-Butanol, n-butanol]
remaining activity at 1.67 % (Renilla Luciferase [2]; assay concentration 1.67% (v/v), read-out: Percent (%) Residual Renilla Luciferase Activity): 4.5%

O=C(O)c1csc(-c2nc3ccc(O)cc3s2)n1 [Dehydroluciferin, 2-(6'-Hydroxy-2'-benzothiazolyl)-thiazole-4-carboxylic acid]
Percent (%) Residual Firefly Luciferase Activity (Firefly Luciferase [1]; assay concentration: Saturating): 0.064%

O=[N+]([O-])[O-].[Na+] [NaNO3]
Percent (%) Residual Firefly Luciferase Activity (Firefly Luciferase [1]; assay concentration 400 mM): 2.1%

Nc1ncnc2c1ncn2[C@@H](CO)O[C@@H](CO)COP(=O)(O)OP(=O)(O)OP(=O)(O)O [or-ATP, Adenosine 5'-Triphosphate 2',3'-acyclic dialcohol, Periodate Oxidized, Borohydride Reduced]
remaining activity at 7600 µM (Firefly Luciferase [1]; [6]): 0.78%

O=P([O-])([O-])OP(=O)([O-])[O-].[Na+].[Na+].[Na+].[Na+] [Na4 PPi, Tetrasodium Pyrophosphate]
remaining activity at 31000 µM (Firefly Luciferase [1]; [6]): 0.12% | inhibitory effect on the luminescent reaction catalyzed by Renilla luciferase (Renilla Luciferase [3]; Mathews' Buffer with 15 mM Na4 PPi added 1:1, compared to control lacking sodium pyrophosphate): no inhibitory affect | activity at 7500 µM (Renilla Luciferase [3]; assay concentration 7.5 mM, control = 100%, read-out: Percent (%) Renilla Luciferase Activity): 102% | remaining activity at 7500 µM (Firefly Luciferase [4]): 1%

[I-].[Na+] [NaI, sodium iodide]
Percent (%) Residual Firefly Luciferase Activity (Firefly Luciferase [1]; assay concentration 400 mM): 0.078% | Percent (%) Residual Renilla Luciferase Activity (Renilla Luciferase [2]; assay concentration 330 mM): 5.9%

CCCCCCCCCCCCOS(=O)(=O)[O-].[Na+] [SDS, Sodium Dodecyl Sulfate]
remaining activity at 0.3 % (Firefly Luciferase [1]; [6]): 0.079% | remaining activity at 0.33 % (Renilla Luciferase [2]; assay concentration 0.33% (w/v), read-out: Percent (%) Residual Renilla Luciferase Activity): 0.00029%

O=C(O)CN(CC(=O)O)[C@@H]1CCCC[C@H]1N(CC(=O)O)CC(=O)O (relative stereo) [CDTA, trans-1,2,-Diaminocyclohexane-N,N,N',N'-tetraacetic acid]
remaining activity at 15400 µM (Firefly Luciferase [1]; [6]): 0.1%

O=C(O)CC(O)(CC(=O)O)C(=O)O [Citric Acid, pH 3, citric acid]
remaining activity at 6670 µM (Renilla Luciferase [2]; assay concentration 6.67 mM, read-out: Percent (%) Residual Renilla Luciferase Activity): 5.3%

Oc1ccccc1-c1nc2ccccc2s1 [HPBT, 2(O-Hydroxyphenyl)benzothiazole]
remaining activity at 30 µM (Firefly Luciferase [1]; [6]): 44%

CCCCCCCCCCP(C)(C)=O [APO-10, Dimethyldecylphosphine Oxide]
remaining activity at 1 % (Firefly Luciferase [1]; [6]): 1.9%

Triton ® X-100
Percent (%) Residual Renilla Luciferase Activity (Renilla Luciferase [2]; [5]): 3.1%

c1ccc2scnc2c1 [BT, Benzothiazole]
remaining activity at 3000 µM (Firefly Luciferase [1]; [6]): 2.3%
